# Measurements published in US10517889B2, “Modulators of SMAD7 expression” (Ionis Pharmaceuticals, Inc., priority 2017, dated 2019).
# Strand notation (5' to 3'): a small letter for the sugar, then the base; units joined by * are phosphorothioate-linked, units joined directly phosphodiester-linked; [ ] holds rarer units or linkages, { } end groups; capitals alone tell only the bases. k = constrained ethyl (cEt); [5mC] = 5-methylcytosine; d = 2'-deoxy (DNA)
# Test system: human SMAD7 mRNA
# Assay: Antisense inhibition of human SMAD7 mRNA expression in Hep3B cells by 3-10-3 cEt gapmers, 10,000 nM, electroporation (Example 2)
# Format: cell-based
# Conditions: Hep3B cells, 10,000 nM antisense oligonucleotide, electroporation, approximately 24 hours, RT-PCR primer probe set RTS5062, relative to untreated control cells
# In short: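 SMAD7 mRNA was measured by real-time PCR (RTS5062) with RiboGreen total-RNA normalization, about 24 h after 10,000 nM gapmer was delivered by electroporation into Hep3B cells at 20,000 per well. Gapmers were 16-mer 3-10-3 cEt, fully phosphorothioate; values are % inhibition versus untreated controls.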
row,Substance,% Inhibition
1,798889 (k[5mC]*kA*k[5mC]*dA*dA*dA*dG*d[5mC]*dT*dG*dA*dT*d[5mC]*kT*kG*k[5mC]; antisense) [compound 798889],0%
2,799876 (kG*k[5mC]*k[5mC]*dA*dG*dG*dG*d[5mC]*d[5mC]*dG*d[5mC]*dA*d[5mC]*kT*kG*kT; antisense) [compound 799876],55%

# Same assay, conditions: Hep3B cells, electroporation with 10,000 nM antisense oligonucleotide, approximately 24 hours, RTS5062, percent inhibition of SMAD7 mRNA relative to untreated control cells
row,Substance,% Inhibition
1,799843 (antisense kG*kG*kA*dG*dG*dA*dG*dG*d[5mC]*dA*dA*dA*dT*kT*k[5mC]*kA) [compound 799843],42%
2,799684 (antisense kA*kA*kT*dG*d[5mC]*dT*dG*dT*d[5mC]*dA*d[5mC]*d[5mC]*d[5mC]*kT*kG*kT) [compound 799684],52%
3,799748 (antisense kG*k[5mC]*kT*dG*dA*dA*dA*dA*dA*dG*dT*d[5mC]*dA*kT*kG*kA) [compound 799748],51%

# Same assay, conditions: Hep3B cells, electroporation with 10,000 nM antisense oligonucleotide, approximately 24 hours, SMAD7 mRNA by RT-PCR (RTS5062), relative to untreated control cells
row,Substance,% Inhibition
1,830190 (antisense kT*kA*kA*dT*d[5mC]*dA*dG*dA*dT*dG*d[5mC]*d[5mC]*dT*kG*k[5mC]*kT) [compound 830190],39%
2,798737 (antisense k[5mC]*kA*kG*dA*dT*d[5mC]*d[5mC]*dG*d[5mC]*d[5mC]*dT*d[5mC]*dG*kG*k[5mC]*kG) [compound 798737],2%
3,830066 (kA*kA*kA*dT*dG*dG*dT*dG*d[5mC]*dT*d[5mC]*dT*dG*k[5mC]*k[5mC]*k[5mC]; antisense) [compound 830066],37%
4,798868 (kA*k[5mC]*k[5mC]*dT*dT*dG*dT*dG*dT*dA*d[5mC]*d[5mC]*dA*kA*k[5mC]*kA; antisense) [compound 798868],48%
5,830132 (antisense kT*kA*k[5mC]*d[5mC]*d[5mC]*dG*d[5mC]*d[5mC]*d[5mC]*dA*d[5mC]*dT*d[5mC]*k[5mC]*k[5mC]*k[5mC]) [compound 830132],8%
6,830041 (antisense kT*k[5mC]*kA*d[5mC]*dT*dT*d[5mC]*d[5mC]*dT*dA*dT*dT*dG*kG*k[5mC]*kT) [compound 830041],56%
7,772563 (antisense kG*kG*k[5mC]*d[5mC]*dA*d[5mC]*d[5mC]*dT*dG*dA*dA*d[5mC]*dA*k[5mC]*kT*kT) [compound 772563],0%
8,798666 (k[5mC]*kA*kT*dG*d[5mC]*dG*d[5mC]*d[5mC]*dA*dG*dT*d[5mC]*dT*k[5mC]*k[5mC]*k[5mC]; antisense) [compound 798666],33%
9,830031 (antisense kT*kA*k[5mC]*d[5mC]*dT*dA*dA*dT*dG*dT*d[5mC]*dA*dA*k[5mC]*kA*k[5mC]) [compound 830031],44%

# Same assay, conditions: Hep3B cells, electroporation with 10,000 nM antisense oligonucleotide, approximately 24 hours, primer probe set RTS5062, relative to untreated control cells
Substance,% inhibition of SMAD7 mRNA expression,% Inhibition
799025 (k[5mC]*kG*k[5mC]*dT*dT*dG*dG*dG*dA*d[5mC]*dT*dG*d[5mC]*kA*kA*kA; antisense) [compound 799025],10%,–
798787 (kG*kA*kG*dA*d[5mC]*dT*d[5mC]*dT*dA*dG*dT*dT*d[5mC]*kG*k[5mC]*kA; antisense) [compound 798787],20%,–
798656 (k[5mC]*kG*k[5mC]*dG*dG*d[5mC]*d[5mC]*d[5mC]*dG*d[5mC]*dG*d[5mC]*d[5mC]*k[5mC]*kT*kG; antisense) [compound 798656],10%,–
799119 (antisense kA*kG*k[5mC]*dA*dG*dA*dG*d[5mC]*dT*dT*dA*dA*d[5mC]*kA*k[5mC]*kA) [compound 799119],–,50%
798958 (antisense kA*kA*k[5mC]*dA*dA*dT*dT*d[5mC]*dT*dT*dT*dT*d[5mC]*kA*kT*kA) [compound 798958],–,0%
798808 (kG*kG*kA*dA*dT*d[5mC]*dT*dG*dA*dA*dA*dG*d[5mC]*k[5mC]*k[5mC]*k[5mC]; antisense) [compound 798808],44%,–
799080 (antisense kA*kG*kG*dG*dA*dG*dA*dT*d[5mC]*d[5mC]*dA*dG*dG*kA*kG*k[5mC]) [compound 799080],–,56%
798691 (antisense k[5mC]*kG*k[5mC]*dA*d[5mC]*dG*dG*d[5mC]*dT*d[5mC]*d[5mC]*dT*d[5mC]*k[5mC]*kA*kG) [compound 798691],42%,–
798963 (antisense kT*kT*k[5mC]*dT*dT*d[5mC]*d[5mC]*dA*dA*dA*dA*dA*dA*kA*k[5mC]*k[5mC]) [compound 798963],13%,–
772696 (kT*k[5mC]*kT*d[5mC]*dT*d[5mC]*dA*dA*dA*dG*d[5mC]*dA*d[5mC]*kT*kA*k[5mC]; antisense) [compound 772696],56%,–
798742 (antisense k[5mC]*kT*k[5mC]*d[5mC]*dT*dT*d[5mC]*dA*dG*dT*dT*dT*d[5mC]*kT*kT*kG) [compound 798742],30%,–
799263 (antisense kT*k[5mC]*k[5mC]*dA*dA*d[5mC]*dT*d[5mC]*dT*d[5mC]*dT*dT*dT*kG*k[5mC]*k[5mC]) [compound 799263],0%,–
772559 (antisense kA*kG*k[5mC]*dG*dA*dG*dT*dA*dG*dG*dA*d[5mC]*dG*kA*kG*kG) [compound 772559],14%,–
799019 (kA*k[5mC]*kT*dG*d[5mC]*dA*dA*dA*d[5mC]*d[5mC]*dT*d[5mC]*dT*k[5mC]*kT*kG; antisense) [compound 799019],–,36%

# Same assay, conditions: Hep3B cells, electroporation, 10,000 nM antisense oligonucleotide, approximately 24 hours, RTS5062, relative to untreated control cells
row,Substance,% inhibition of SMAD7 mRNA expression
1,799299 (antisense kA*kT*kT*d[5mC]*d[5mC]*dA*dA*dA*dA*dG*dG*d[5mC]*dT*kG*kA*k[5mC]) [compound 799299],42%

# Same assay, conditions: SMAD7 mRNA, Hep3B cells, 10,000 nM antisense oligonucleotide, electroporation, approximately 24 hours, primer probe set RTS5062, relative to untreated control cells
row,Substance,% Inhibition
1,790874 (k[5mC]*k[5mC]*kG*dG*dA*dA*dG*dT*d[5mC]*dT*dT*dG*dT*kA*kT*kT; antisense) [compound 790874],0%
2,790612 (kT*kA*kA*dA*d[5mC]*d[5mC]*dT*dT*dT*dG*dT*dA*dG*kT*kT*kA; antisense) [compound 790612],64%
3,790508 (k[5mC]*kA*k[5mC]*d[5mC]*dA*d[5mC]*dG*d[5mC]*dA*d[5mC]*d[5mC]*dA*dG*kT*kG*kT; antisense) [compound 790508],0%
4,829749 (antisense kT*k[5mC]*k[5mC]*dT*d[5mC]*dG*d[5mC]*d[5mC]*dG*d[5mC]*d[5mC]*dG*dG*kG*k[5mC]*kG) [compound 829749],26%
5,790693 (k[5mC]*kA*kA*dA*dG*dT*dA*dT*dA*d[5mC]*d[5mC]*dT*dG*kT*kT*k[5mC]; antisense) [compound 790693],45%
6,800795 (antisense kT*kA*kA*d[5mC]*dT*dG*d[5mC]*dT*dG*d[5mC]*dG*dG*dT*kT*kG*kT) [compound 800795],12%

# Same assay, conditions: SMAD7 mRNA, Hep3B cells, electroporation with 10,000 nM antisense oligonucleotide, approximately 24 hours, primer probe set RTS5062, relative to untreated control cells
row,Substance,% Inhibition
1,829895 (antisense kT*k[5mC]*kA*d[5mC]*dA*dA*dA*dG*d[5mC]*dT*dG*dA*dT*k[5mC]*kT*kG) [compound 829895],37%
2,830003 (antisense kG*kG*k[5mC]*dA*dT*dT*d[5mC]*dT*dT*dT*dT*dA*dG*k[5mC]*k[5mC]*k[5mC]) [compound 830003],0%
3,829938 (kA*kT*kT*d[5mC]*dA*dG*d[5mC]*dT*dA*dG*dG*dT*dG*kA*kT*kA; antisense) [compound 829938],17%
4,829951 (kG*k[5mC]*kT*d[5mC]*d[5mC]*dG*dG*dG*d[5mC]*dA*dG*d[5mC]*d[5mC]*kA*kG*kT; antisense) [compound 829951],10%
